These are literature values, as cited in patent publication US9682924B2, “Crystalline form of VSN16” (CANBEX THERAPEUTICS LIMITED, priority 2013, dated 2017).

The subject of one series is mesenteric arteries. The settings on record: for antagonism of VSN16 vasorelaxation: antagonist against VSN16-induced vasorelaxation, rimonabant and AM 251 at high concentrations.
The next series has as its system spasticity in CREAE mice. The conditions noted are these: without producing significant adverse CNS effects.
A further series deals with T1, CB1 receptors (Rattus norvegicus, UniProt P20272).
T1 construct: from tissue; host or cells: rat cerebellum
T1 sequence (P20272 whole entry): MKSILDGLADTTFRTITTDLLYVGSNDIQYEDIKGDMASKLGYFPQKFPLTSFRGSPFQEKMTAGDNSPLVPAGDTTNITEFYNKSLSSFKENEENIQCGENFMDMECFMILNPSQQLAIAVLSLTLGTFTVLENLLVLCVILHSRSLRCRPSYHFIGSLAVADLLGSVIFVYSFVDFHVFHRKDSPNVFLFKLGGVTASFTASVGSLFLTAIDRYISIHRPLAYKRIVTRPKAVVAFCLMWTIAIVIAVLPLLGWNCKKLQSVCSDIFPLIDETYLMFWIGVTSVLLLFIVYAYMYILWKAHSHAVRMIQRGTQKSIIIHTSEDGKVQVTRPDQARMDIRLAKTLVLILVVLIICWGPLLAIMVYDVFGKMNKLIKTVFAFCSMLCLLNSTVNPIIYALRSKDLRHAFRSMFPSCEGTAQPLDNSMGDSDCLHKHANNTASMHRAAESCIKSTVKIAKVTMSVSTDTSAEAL
The settings on record: rat cerebellum.

As for `CC(CO)NC(=O)c1cccc(/C=C\CCCC(=O)N(C)C)c1` (centres unmarked) [VSN16], the “relaxation of mesenteric arteries” value with mesenteric arteries (endothelium-dependent) is recorded as “relaxes mesenteric arteries in an endothelium-dependent manner”. In the series on conscious rats, the blood pressure entry was “transiently increases blood pressure” and the mesenteric vascular conductance result is “longer-lasting increase in mesenteric vascular conductance”. Also, the effect on spasticity entry in the series on spasticity in CREAE mice is “marked effect on spasticity”. At CB1 receptors, the “effect on [3H]CP55,940 binding to CB1 receptors” value was “does not affect”.

Turning to `Cc1c(C(=O)NN2CCCCC2)nn(-c2ccc(Cl)cc2Cl)c1-c1ccc(Cl)cc1` [rimonabant], the “antagonism of VSN16 vasorelaxation” value with mesenteric arteries is on record as “antagonized”.

Turning to `Cc1c(C(=O)NN2CCCCC2)nn(-c2ccc(Cl)cc2Cl)c1-c1ccc(I)cc1` [AM 251], in the series with mesenteric arteries, the “antagonism of VSN16 vasorelaxation” value was “antagonized”.

Regarding `C=C(C)[C@@H]1CCC(C)=C[C@H]1c1c(OC)cc(C)cc1OC` [O-1918], in the series on mesenteric arteries, the “antagonism of VSN16 vasorelaxation” value is reported as “antagonized”.
